Legend:
[1] = system: E. coli ESBL4 expressing CTX-M-15; experiment: Broth microdilution MIC, E. coli ESBL4 CTX-M-15; assay type: cell-based; settings: fixed 4 μg/mL ceftazidime; CAMHB, 16-20 hours at 37° C.
Method in brief: (§1)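 Following CLSI broth microdilution, β-lactamase-producing strains grown 3–5 h were exposed in CAMHB to 2-fold dilutions of test compound (32 to 0.25 μg/mL final). A static 4 μg/mL β-lactam overlay was added. After 16–20 h at 37° C, MIC was scored by eye.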

[2] = biological target: T1, p99 AmpC β-lactamase (Class C) (Enterobacter cloacae, UniProt P05364); experiment: β-Lactamase inhibition, p99 AmpC; assay type: biochemical
T1 construct: made in house; host or cells: E. coli BL21(DE3)
T1 sequence (P05364 21-381): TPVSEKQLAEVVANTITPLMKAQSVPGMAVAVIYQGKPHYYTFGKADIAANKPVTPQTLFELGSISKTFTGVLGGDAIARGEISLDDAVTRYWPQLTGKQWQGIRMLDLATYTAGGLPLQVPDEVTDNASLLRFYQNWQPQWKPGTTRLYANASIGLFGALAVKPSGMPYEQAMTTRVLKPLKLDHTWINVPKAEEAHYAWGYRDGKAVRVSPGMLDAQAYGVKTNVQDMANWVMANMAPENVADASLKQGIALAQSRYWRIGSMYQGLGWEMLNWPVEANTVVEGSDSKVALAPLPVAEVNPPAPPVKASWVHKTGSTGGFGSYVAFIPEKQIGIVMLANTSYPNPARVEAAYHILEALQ

[3] = biological target: T2, VIM-2 metallo-β-lactamase (Class B) (Pseudomonas aeruginosa, UniProt Q9K2N0); experiment: β-Lactamase inhibition, VIM-2; assay type: biochemical; settings: nitrocefin 100 μM, 486 nm; 15 min preincubation at 37° C., PBS pH 7.4
T2 construct: made in house; host or cells: E. coli BL21(DE3)
Method in brief: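 Nitrocefin hydrolysis (100 μM final, A486 read for 10 min) by purified VIM-2 after a 15-min, 37° C enzyme–inhibitor preincubation. IC50 is the concentration halving initial hydrolysis rate, derived from percent inhibition against no-inhibitor wells.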

[4] = system: K. pneumoniae A-1797 expressing KPC-2 and VIM-4; experiment: Broth microdilution MIC, K. pneumoniae A-1797 KPC-2/VIM-4; assay type: cell-based; settings: fixed 4 μg/mL meropenem; CAMHB, 16-20 hours at 37° C.
Method in brief: as §1

[5] = system: E. cloacae 144200 expressing Class C P99 AmpC; experiment: Broth microdilution MIC, E. cloacae 144200 p99 AmpC; assay type: cell-based; settings: fixed 4 μg/mL ceftazidime; CAMHB, 16-20 hours at 37° C.
Method in brief: as §1

[6] = system: S. aureus MSSA-7 producing penicillinase PC-1; experiment: Broth microdilution MIC, S. aureus MSSA-7 PC-1; assay type: cell-based; settings: fixed 4 μg/mL piperacillin; CAMHB, 16-20 hours at 37° C.
Method in brief: as §1

[7] = system: P. aeruginosa Ps296 expressing VIM-2; experiment: Broth microdilution MIC, P. aeruginosa Ps296 VIM-2; assay type: cell-based; settings: fixed 4 μg/mL meropenem; CAMHB, 16-20 hours at 37° C.
Method in brief: as §1

[8] = system: K. pneumoniae 156319 expressing KPC-3; experiment: Broth microdilution MIC, K. pneumoniae 156319 KPC-3; assay type: cell-based; settings: fixed 4 μg/mL meropenem; CAMHB, 16-20 hours at 37° C.
Method in brief: as §1

[9] = biological target: T3, OXA-1 β-lactamase (Class D oxacillinase) (Escherichia coli, UniProt P13661); experiment: β-Lactamase inhibition, OXA-1; assay type: biochemical; settings: nitrocefin 100 μM, 486 nm; 15 min preincubation at 37° C., PBS pH 7.4
T3 construct: made in house; host or cells: E. coli BL21(DE3)
T3 sequence (P13661 26-276): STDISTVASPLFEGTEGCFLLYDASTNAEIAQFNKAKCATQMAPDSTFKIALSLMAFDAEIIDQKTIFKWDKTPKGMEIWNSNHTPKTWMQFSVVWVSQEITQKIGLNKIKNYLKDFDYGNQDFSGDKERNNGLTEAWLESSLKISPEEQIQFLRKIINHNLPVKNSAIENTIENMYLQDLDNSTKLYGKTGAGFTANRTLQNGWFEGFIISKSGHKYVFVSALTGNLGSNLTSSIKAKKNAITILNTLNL
Method in brief: (§2)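 Compounds are mixed with purified, untagged recombinant β-lactamase and held 15 min at 37 °C. Substrate is then added: nitrocefin (100 μM final) for OXA-1, imipenem for KPC-2, cefotaxime for SHV-5. Absorbance is followed immediately, and percent inhibition per concentration gives the IC50.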

[10] = biological target: T4, KPC-2 β-lactamase (Class A carbapenemase) (Klebsiella pneumoniae, UniProt Q9F663); experiment: β-Lactamase inhibition, KPC-2; assay type: biochemical; settings: imipenem substrate, 300 nm; 15 min preincubation at 37° C., PBS pH 7.4
T4 construct: made in house; host or cells: E. coli BL21(DE3)
T4 sequence (Q9F663 25-293, looked up): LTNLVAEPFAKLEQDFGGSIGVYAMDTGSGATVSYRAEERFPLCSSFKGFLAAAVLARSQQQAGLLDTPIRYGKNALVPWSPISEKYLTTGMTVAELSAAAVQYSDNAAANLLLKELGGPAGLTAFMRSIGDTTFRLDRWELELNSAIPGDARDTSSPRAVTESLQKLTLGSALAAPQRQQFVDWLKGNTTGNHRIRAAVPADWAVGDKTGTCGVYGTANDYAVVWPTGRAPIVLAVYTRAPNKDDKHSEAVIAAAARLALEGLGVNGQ
Method in brief: as §2

[11] = biological target: T5, SHV-5 β-lactamase (Class A ESBL) (Klebsiella pneumoniae, UniProt P0A3M1); experiment: β-Lactamase inhibition, SHV-5; assay type: biochemical
T5 construct: made in house; host or cells: E. coli BL21(DE3)
T5 sequence (P0A3M1 22-286): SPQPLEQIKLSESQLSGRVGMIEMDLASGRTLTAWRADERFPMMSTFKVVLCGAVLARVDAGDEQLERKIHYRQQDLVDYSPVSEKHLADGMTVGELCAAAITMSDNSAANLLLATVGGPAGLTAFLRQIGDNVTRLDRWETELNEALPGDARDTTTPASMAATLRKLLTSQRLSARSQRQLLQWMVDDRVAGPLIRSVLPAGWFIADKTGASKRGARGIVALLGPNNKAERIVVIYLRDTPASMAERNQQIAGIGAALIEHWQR
Method in brief: as §2

Row | Structure (SMILES) | MIC of example compound in presence of fixed β-lactam: Fixed CAZ, E. coli ESBL4 CTX-M-15 [1] | IC50 [2] [nM] | IC50 [3] [nM] | MIC of example compound in presence of fixed β-lactam: Fixed Mero, K. P. A-1797 KPC-2 VIM-4 [4] | MIC of example compound in presence of fixed β-lactam: Fixed CAZ, E. cl. 144200 p99 AmpC [5] | MIC of example compound in presence of fixed β-lactam: Fixed Pip, S. aureus MSSA-7 PC-1 [6] | MIC of example compound in presence of fixed β-lactam: Fixed Mero, P. aerug. Ps296 VIM-2 [7] | MIC of example compound in presence of fixed β-lactam: Fixed Mero, K. P. 156319 KPC-3 [8] | IC50 [9] [nM] | IC50 [10] [nM] | IC50 [11] [nM]
1 | O=C(CN1CCCNCC1)N[C@H]1Cc2cccc(C(=O)O)c2OB1O [Example 13, 3-(2-[1,4]Diazepan-1-yl-acetylamino)-2-hydroxy-3,4-dihydro-2H-benzo[e][1,2]oxaborinine-8-carboxylic acid] | C (the MIC in the presence of <4 μg/mL of a β-lactamase inhibitor) | < 100 | 10000 to 100000 | B (the MIC in the presence of between 8 and 32 μg/mL of a β-lactamase inhibitor) | C (the MIC in the presence of <4 μg/mL of a β-lactamase inhibitor) | C (the MIC in the presence of <4 μg/mL of a β-lactamase inhibitor) | B (the MIC in the presence of between 8 and 32 μg/mL of a β-lactamase inhibitor) | C (the MIC in the presence of <4 μg/mL of a β-lactamase inhibitor) | 100 to 1000 | 1000 to 10000 | 100 to 1000
2 | CNC1CCN(CC(=O)N[C@H]2Cc3cccc(C(=O)O)c3OB2O)CC1 [Example 14, 2-Hydroxy-3-[2-(4-methylamino-piperidin-1-yl)-acetylamino]-3,4-dihydro-2H-benzo[e][1,2]oxaborinine-8-carboxylic acid] | C (the MIC in the presence of <4 μg/mL of a β-lactamase inhibitor) | < 100 | 1000 to 10000 | B (the MIC in the presence of between 8 and 32 μg/mL of a β-lactamase inhibitor) | C (the MIC in the presence of <4 μg/mL of a β-lactamase inhibitor) | C (the MIC in the presence of <4 μg/mL of a β-lactamase inhibitor) | B (the MIC in the presence of between 8 and 32 μg/mL of a β-lactamase inhibitor) | C (the MIC in the presence of <4 μg/mL of a β-lactamase inhibitor) | 100 to 1000 | 100 to 1000 | 100 to 1000
3 | O=C(CN1CCN(c2nccs2)CC1)N[C@H]1Cc2cccc(C(=O)O)c2OB1O [Example 15, 2-Hydroxy-3-[2-(4-thiazol-2-yl-piperazin-1-yl)-acetylamino]-3,4-dihydro-2H-benzo[e][1,2]oxaborinine-8-carboxylic acid] | C (the MIC in the presence of <4 μg/mL of a β-lactamase inhibitor) | < 100 | 1000 to 10000 | B (the MIC in the presence of between 8 and 32 μg/mL of a β-lactamase inhibitor) | C (the MIC in the presence of <4 μg/mL of a β-lactamase inhibitor) | C (the MIC in the presence of <4 μg/mL of a β-lactamase inhibitor) | C (the MIC in the presence of <4 μg/mL of a β-lactamase inhibitor) | C (the MIC in the presence of <4 μg/mL of a β-lactamase inhibitor) | 100 to 1000 | 1000 to 10000 | 100 to 1000
4 | NCCN1CCN(CC(=O)N[C@H]2Cc3cccc(C(=O)O)c3OB2O)CC1 [Example 16, 3-{2-[4-(2-Amino-ethyl)-piperazin-1-yl]-acetylamino}-2-hydroxy-3,4-dihydro-2H-benzo[e][1,2]oxaborinine-8-carboxylic acid] | C (the MIC in the presence of <4 μg/mL of a β-lactamase inhibitor) | < 100 | 1000 to 10000 | B (the MIC in the presence of between 8 and 32 μg/mL of a β-lactamase inhibitor) | C (the MIC in the presence of <4 μg/mL of a β-lactamase inhibitor) | C (the MIC in the presence of <4 μg/mL of a β-lactamase inhibitor) | C (the MIC in the presence of <4 μg/mL of a β-lactamase inhibitor) | C (the MIC in the presence of <4 μg/mL of a β-lactamase inhibitor) | < 100 | 100 to 1000 | < 100
5 | NCC(=O)N1CCN(CC(=O)N[C@H]2Cc3cccc(C(=O)O)c3OB2O)CC1 [Example 17, 3-{2-[4-(2-Amino-acetyl)-piperazin-1-yl]-acetylamino}-2-hydroxy-3,4-dihydro-2H-benzo[e][1,2]oxaborinine-8-carboxylic acid] | B (the MIC in the presence of between 8 and 32 μg/mL of a β-lactamase inhibitor) | < 100 | 1000 to 10000 | A (an MIC of the fixed β-lactam antibiotic in the presence of >32 μg/mL of a β-lactamase inhibitor) | C (the MIC in the presence of <4 μg/mL of a β-lactamase inhibitor) | C (the MIC in the presence of <4 μg/mL of a β-lactamase inhibitor) | A (an MIC of the fixed β-lactam antibiotic in the presence of >32 μg/mL of a β-lactamase inhibitor) | B (the MIC in the presence of between 8 and 32 μg/mL of a β-lactamase inhibitor) | < 100 | 100 to 1000 | < 100
6 | O=C(CN1CCN(CCO)CC1)N[C@H]1Cc2cccc(C(=O)O)c2OB1O [Example 18, 2-Hydroxy-3-{2-[4-(2-hydroxy-ethyl)-piperazin-1-yl]-acetylamino}-3,4-dihydro-2H-benzo[e][1,2]oxaborinine-8-carboxylic acid] | B (the MIC in the presence of between 8 and 32 μg/mL of a β-lactamase inhibitor) | < 100 | 100 to 1000 | B (the MIC in the presence of between 8 and 32 μg/mL of a β-lactamase inhibitor) | C (the MIC in the presence of <4 μg/mL of a β-lactamase inhibitor) | A (an MIC of the fixed β-lactam antibiotic in the presence of >32 μg/mL of a β-lactamase inhibitor) | B (the MIC in the presence of between 8 and 32 μg/mL of a β-lactamase inhibitor) | C (the MIC in the presence of <4 μg/mL of a β-lactamase inhibitor) | < 100 | 100 to 1000 | 100 to 1000
